Measurements from PubChem BioAssay (NCI).
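Five concentrations, 48 hours, 96-well plates. Definition used: TGI = concentration required for complete inhibition of growth.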

Tested on: SN12K1 renal
Test: DTP human tumour cell line panel, 48 h

| Compound | TGI [µM] |
| --- | --- |
| O=NN(CCCl)C(=O)NC1CCC(=O)NC1=O (configuration not stated) | 348 |
| COc1cccc2c1[C@H]1CO[C@H]3C4C[C@H](C(=O)O)C([C@@H](C2)N13)N4C (some centres not stated) | 8.4 |
